Source: PMC4333385 (Nucleic Acids Research, 2014)
Each block holds one compound with its values, some of them ahead of it.

Key:
[1] = target: T1, E. coli RecQ helicase (Escherichia coli, UniProt P15043); experiment: stopped-flow FRET binding kinetics (k-1/k1); conditions: read-out: DNA-free RecQ
Excerpt: stopped-flow FRET binding kinetics (k-1/k1) on E. coli RecQ helicase

[2] = target: T1, E. coli RecQ helicase; experiment: quenched-flow ATP hydrolysis, global fit; format: biochemical; conditions: SF50 buffer pH 7.5, 5 mM MgCl2, 50 mM NaCl, 25 °C; gamma-32P-ATP; read-out: DNA-free RecQ
Excerpt: quenched-flow ATP hydrolysis, global fit on E. coli RecQ helicase

[3] = target: T1, E. coli RecQ helicase; experiment: stopped-flow FRET binding kinetics; conditions: association rate constant, Kd not given, SF50 buffer pH 7.5, 5 mM MgCl2, 25 °C, labelled compound
Excerpt: stopped-flow FRET binding kinetics on E. coli RecQ helicase

T1 sequence (P15043 2-609): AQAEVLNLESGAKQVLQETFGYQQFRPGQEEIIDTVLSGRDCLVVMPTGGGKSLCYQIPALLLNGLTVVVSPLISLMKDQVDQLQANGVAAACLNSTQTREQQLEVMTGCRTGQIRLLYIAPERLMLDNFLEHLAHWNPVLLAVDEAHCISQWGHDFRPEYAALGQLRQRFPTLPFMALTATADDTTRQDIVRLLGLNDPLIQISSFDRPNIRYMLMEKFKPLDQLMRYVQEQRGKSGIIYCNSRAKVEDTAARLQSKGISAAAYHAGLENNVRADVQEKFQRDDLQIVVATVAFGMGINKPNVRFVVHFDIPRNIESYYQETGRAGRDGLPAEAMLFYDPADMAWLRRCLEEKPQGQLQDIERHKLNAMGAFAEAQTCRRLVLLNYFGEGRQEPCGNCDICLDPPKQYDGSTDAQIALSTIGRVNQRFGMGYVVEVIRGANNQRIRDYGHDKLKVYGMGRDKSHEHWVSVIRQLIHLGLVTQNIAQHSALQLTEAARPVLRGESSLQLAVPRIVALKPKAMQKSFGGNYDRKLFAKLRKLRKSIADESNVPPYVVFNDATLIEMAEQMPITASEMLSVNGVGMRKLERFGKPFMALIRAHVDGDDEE

Kd [1]: 15 ± 2 µM
SMILES: CNc1ccccc1C(=O)O[C@H]1C[C@H](n2cnc3c(N)ncnc32)O[C@@H]1COP(=O)(O)OP(=O)(O)OP(=O)(O)O [mdATP, 3′-(N-methylanthraniloyl)-2′-deoxy-ATP]

Kd [2]: 120 ± 30 µM
SMILES: Nc1ncnc2c1ncn2[C@@H]1O[C@H](COP(=O)(O)OP(=O)(O)OP(=O)(O)O)[C@@H](O)[C@H]1O [ATP]

DNA-free RecQ [3]: 4.5 ± 0.5 µM⁻¹ s⁻¹
SMILES: CNc1ccccc1C(=O)O[C@H]1C[C@H](n2cnc3c(N)ncnc32)O[C@@H]1COP(=O)(O)OP(=O)(O)O [mdADP]
